Target: T1, murine Nurr1 receptor (Mus musculus, UniProt Q06219)
T1 construct: a cell line (N2A) endogenously expressing the murine Nurr1 receptor; host or cells: Neuro-2A (N2A) mouse neuroblastoma cells stably transfected with 8NBRE-luciferase
Experiment: In vitro activity on N2A cells (8NBRE-luciferase reporter)
Type: cell-based
Conditions: N2A cells endogenously expressing Nurr1, stably transfected with 8NBRE-luciferase; 24 hours incubation
Experimental: Evaluation of the In Vitro Activity on N2A Cells
The activity of the compounds according to the invention was evaluated on a cell line (N2A) endogenously expressing the murine Nurr1 receptor and stably transfected with the NOT binding response element (NBRE) coupled to the luciferase reporter gene. The tests were performed according to the procedure described hereinbelow.
The cell line Neuro-2A is obtained from a standard commercial source (ATCC). The clone Neuro-2A was obtained from a spontaneous tumour originating from a strain of albino mice A by R. J Klebe et al. This line Neuro-2A is then stably transfected with 8NBRE-luciferase. The N2A-8NBRE cells are cultured to the point of confluence in 75 cm^2 culture flasks containing DMEM supplemented with 10% foetal calf serum, 4.5 g/L of glucose and 0.4 mg/ml of geneticin. After culturing for one week, the cells are recovered with 0.25% trypsin for 30 seconds and then resuspended in DMEM without phenol red, containing 4.5 g/L of glucose and 10% Hyclone defatted serum, and placed in white, transparent-base 96-well plates. The cells are deposited at a rate of 60 000 per well in 75 4, for 24 hours before adding the products. The products are applied in 25 4 and incubated for a further 24 hours. On the day of measurement, an equivalent volume (100 4) of Steadylite is added to each well, and the wells are then left for 30 minutes to obtain complete lysis of the cells and maximum production of the signal. The plates are then measured in a microplate luminescence counter, after having been sealed with an adhesive film. The products are prepared in the form of a 10^−2 M stock solution, and then diluted in 100% of DMSO. Each concentration of product is prediluted in culture medium before incubation with the cells thus containing 0.625% final of DMSO.

T1 sequence (Q06219 whole entry): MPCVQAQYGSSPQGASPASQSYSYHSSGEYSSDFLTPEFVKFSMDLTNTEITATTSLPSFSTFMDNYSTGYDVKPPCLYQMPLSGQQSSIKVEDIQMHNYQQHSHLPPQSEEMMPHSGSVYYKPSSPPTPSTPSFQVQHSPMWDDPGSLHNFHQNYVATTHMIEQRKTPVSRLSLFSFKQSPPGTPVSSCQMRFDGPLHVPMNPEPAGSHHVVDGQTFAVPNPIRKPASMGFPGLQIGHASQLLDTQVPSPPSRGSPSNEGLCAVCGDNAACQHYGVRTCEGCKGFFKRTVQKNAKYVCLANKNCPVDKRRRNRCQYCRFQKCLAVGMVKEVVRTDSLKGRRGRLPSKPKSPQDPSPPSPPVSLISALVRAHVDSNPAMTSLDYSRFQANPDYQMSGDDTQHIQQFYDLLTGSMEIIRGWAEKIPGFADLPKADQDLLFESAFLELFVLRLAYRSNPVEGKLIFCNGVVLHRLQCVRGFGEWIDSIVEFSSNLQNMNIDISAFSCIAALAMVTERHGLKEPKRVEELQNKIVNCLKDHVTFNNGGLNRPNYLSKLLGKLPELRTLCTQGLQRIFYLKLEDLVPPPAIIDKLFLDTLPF

Row | SMILES | EC50 [nM]
1 | CNC(=O)c1cccc(-c2ccn3nc(-c4cc(F)cc(F)c4)cc3c2)c1 [Compound 26] | 1.3
2 | O=C(c1cccc(-c2ccn3nc(-c4ccc(F)cc4)cc3c2)c1)N1CCCC1 [Compound 16, {3-[2-(4-Fluorophenyl)pyrazolo[1,5-c]pyridin-5-yl]phenyl}pyrrolidin-1-ylmethanone] | 326
3 | CNC(=O)c1cccc(-c2ccn3nc(-c4ccc(F)cc4)cc3c2)c1C [Compound 10, 3-[2-(4-Fluorophenyl)pyrazolo[1,5-a]pyridin-5-yl]-2,N-dimethylbenzamide] | 6.6
4 | CNC(=O)c1ccc(-c2ccn3nc(-c4ccc(F)cc4)cc3c2)cc1F [Compound 14, 2-Fluoro-4-[2-(4-fluorophenyl)pyrazolo[1,5-c]pyridin-5-yl]-N-methylbenzamide] | 125
5 | NC(=O)c1cccc(-c2ccn3nc(-c4ccc(Cl)cc4)cc3c2)c1 [Compound 2, 3-[2-(4-Chlorophenyl)pyrazolo[1,5-a]pyridin-5-yl]benzamide] | 45
6 | CNC(=O)c1cccc(-c2ccn3nc(-c4ccc(Cl)cc4)cc3c2)c1 [Compound 4, 3-[2-(4-Chlorophenyl)pyrazolo[1,5-a]pyridin-5-yl]-N-methylbenzamide] | 2

System: not given
Experiment: not given
Conditions: not given

Row | SMILES | melting point [°C]
7 | CNC(=O)c1cccc(-c2ccn3nc(-c4ccc(OC)cc4)cc3c2)c1 [Compound 29, 3-[2-(4-Methoxyphenyl)pyrazolo[1,5-a]pyridin-5-yl]-N-methylbenzamide] | 211 to 213
8 | CNC(=O)c1cccc(-c2ccn3nc(-c4cccc(F)c4)cc3c2)c1 [Compound 27, 3-[2-(3-Fluorophenyl)pyrazolo[1,5-a]pyridin-5-yl]-N-methylbenzamide] | 204 to 206
9 | CNC(=O)c1cccc(-c2ccn3nc(-c4ccc(F)cc4)cc3c2)c1 [Compound 6, 3-[2-(4-Fluorophenyl)pyrazolo[1,5-a]pyridin-5-yl]-N-methylbenzamide] | 214 to 216
10 | CNC(=O)c1cccc(-c2ccn3nc(-c4ccc(C)cc4)cc3c2)c1 [Compound 28, N-Methyl-3-(2-p-tolylpyrazolo[1,5-a]pyridin-5-yl)benzamide] | 204 to 206
11 | CNC(=O)c1ccc(-c2ccn3nc(-c4ccc(F)cc4)cc3c2)cc1 [Compound 20, 4-[2-(4-Fluorophenyl)pyrazolo[1,5-a]pyridin-5-yl]-N-methylbenzamide] | 264 to 266
12 | CNC(=O)c1cccc(-c2ccn3nc(-c4ccccc4C)cc3c2)c1 [Compound 33, N-Methyl-3-(2-o-tolylpyrazolo[1,5-a]pyridin-5-yl)benzamide] | 129 to 131
13 | CN(C)C(=O)c1cccc(-c2ccn3nc(-c4ccc(Cl)cc4)cc3c2)c1 [Compound 3, 3-[2-(4-Chlorophenyl)pyrazolo[1,5-a]pyridin-5-yl]-N,N-dimethyl-benzamide] | 175 to 177
14 | CNC(=O)c1cccc(-c2ccn3nc(-c4cc(F)cc(F)c4)cc3c2)c1 [Compound 26] | 230 to 232
15 | O=C(c1cccc(-c2ccn3nc(-c4ccc(F)cc4)cc3c2)c1)N1CCC(O)C1 (centres unmarked) [Compound 22, {3-[2-(4-Fluorophenyl)pyrazolo[1,5-a]pyridin-5-yl]phenyl}-(3-hydroxy-pyrrolidin-1-yl)methanone] | 173 to 175
16 | O=C(c1cccc(-c2ccn3nc(-c4ccc(F)cc4)cc3c2)c1)N1CCCC1 [Compound 16, {3-[2-(4-Fluorophenyl)pyrazolo[1,5-c]pyridin-5-yl]phenyl}pyrrolidin-1-ylmethanone] | 164 to 166
17 | O=C(NC1CC1)c1cccc(-c2ccn3nc(-c4ccc(F)cc4)cc3c2)c1 [Compound 15, N-Cyclopropyl-3-[2-(4-fluorophenyl)pyrazolo[1,5-a]pyridin-5-yl]-benzamide] | 179 to 181
18 | CNC(=O)c1cccc(-c2ccn3nc(-c4ccc(F)cc4F)cc3c2)c1 [Compound 23, 3-[2-(2,4-Difluorophenyl)pyrazolo[1,5-a]pyridin-5-yl]-N-methylbenzamide] | 210 to 212
19 | CNC(=O)c1cccc(-c2ccn3nc(-c4ccc(C(F)(F)F)cc4)cc3c2)c1 [Compound 19, N-Methyl-3-[2-(4-trifluoromethylphenyl)pyrazolo[1,5-a]pyridin-5-yl]benzamide] | 220 to 222
20 | CNC(=O)c1cccc(-c2ccn3nc(-c4ccc(F)cc4)c(Cl)c3c2)c1 [Compound 34, 3-[3-Chloro-2-(4-fluorophenyl)pyrazolo[1,5-a]pyridin-5-yl]-N-methyl-benzamide] | 221 to 223
21 | CC(C)NC(=O)c1cccc(-c2ccn3nc(-c4ccc(F)cc4)cc3c2)c1 [Compound 7, 3-[2-(4-Fluorophenyl)pyrazolo[1,5-a]pyridin-5-yl]-N-isopropylbenzamide] | 210 to 212
22 | CNC(=O)c1ccc(C)c(-c2ccn3nc(-c4ccc(F)cc4)cc3c2)c1 [Compound 13, 3-[2-(4-Fluorophenyl)pyrazolo[1,5-a]pyridin-5-yl]-4,N-dimethylbenzamide] | 185 to 187
23 | COC(=O)c1cccc(-c2ccn3nc(-c4ccc(Cl)cc4)cc3c2)c1 [Compound 1, Methyl 3-[2-(4-chlorophenyl)pyrazolo[1,5-a]pyridin-5-yl]benzoate] | 180 to 182
24 | COC(=O)c1cccc(-c2ccn3nc(-c4ccc(F)cc4)cc3c2)c1 [Compound 5, Methyl 3-[2-(4-fluorophenyl)pyrazolo[1,5-a]pyridin-5-yl]benzoate] | 162 to 164
25 | CNC(=O)c1ccc(-c2ccn3nc(-c4ccc(F)cc4)cc3c2)cc1F [Compound 14, 2-Fluoro-4-[2-(4-fluorophenyl)pyrazolo[1,5-c]pyridin-5-yl]-N-methylbenzamide] | 227 to 229
26 | CNC(=O)c1cc(-c2ccn3nc(-c4ccc(F)cc4)cc3c2)ccc1Cl [Compound 11, 2-Chloro-5-[2-(4-fluorophenyl)pyrazolo[1,5-a]pyridin-5-yl]-N-methylbenzamide] | 243 to 245
27 | CNC(=O)c1cccc(-c2ccn3nc(-c4ccccc4F)cc3c2)c1 [Compound 18, 3-[2-(2-Fluorophenyl)pyrazolo[1,5-a]pyridin-5-yl]-N-methylbenzamide] | 195 to 197
28 | CNC(=O)c1ccc(Cl)c(-c2ccn3nc(-c4ccc(F)cc4)cc3c2)c1 [Compound 12, 4-Chloro-3-[2-(4-fluorophenyl)pyrazolo[1,5-a]pyridin-5-yl]-N-methylbenzamide] | 188 to 190
29 | CNC(=O)c1cccc(-c2ccn3nc(-c4cccc(F)c4F)cc3c2)c1 [Compound 32, 3-[2-(2,3-Difluorophenyl)pyrazolo[1,5-a]pyridin-5-yl]-N-methylbenzamide] | 214 to 216
30 | NC(=O)c1cccc(-c2ccn3nc(-c4ccc(Cl)cc4)cc3c2)c1 [Compound 2, 3-[2-(4-Chlorophenyl)pyrazolo[1,5-a]pyridin-5-yl]benzamide] | 283 to 285
31 | CNC(=O)c1cccc(-c2ccn3nc(-c4ccc(Cl)cc4)cc3c2)c1 [Compound 4, 3-[2-(4-Chlorophenyl)pyrazolo[1,5-a]pyridin-5-yl]-N-methylbenzamide] | 234 to 236
32 | CNC(=O)c1cccc(-c2ccn3nc(-c4ccc(C#N)cc4)cc3c2)c1 [Compound 31, 3-[2-(4-Cyanophenyl)pyrazolo[1,5-a]pyridin-5-yl]-N-methylbenzamide] | 252 to 254
